Results on ten compounds are retold here after patent publication US20240208997A1, “CYCLIC BENZIMIDAZOLE DERIVATIVES AS CGAS INHIBITORS” (Boehringer Ingelheim International GmbH, priority 2022, published 2024).

Structures are written as SMILES.

Sequence of cGAS (Q8N884 whole entry): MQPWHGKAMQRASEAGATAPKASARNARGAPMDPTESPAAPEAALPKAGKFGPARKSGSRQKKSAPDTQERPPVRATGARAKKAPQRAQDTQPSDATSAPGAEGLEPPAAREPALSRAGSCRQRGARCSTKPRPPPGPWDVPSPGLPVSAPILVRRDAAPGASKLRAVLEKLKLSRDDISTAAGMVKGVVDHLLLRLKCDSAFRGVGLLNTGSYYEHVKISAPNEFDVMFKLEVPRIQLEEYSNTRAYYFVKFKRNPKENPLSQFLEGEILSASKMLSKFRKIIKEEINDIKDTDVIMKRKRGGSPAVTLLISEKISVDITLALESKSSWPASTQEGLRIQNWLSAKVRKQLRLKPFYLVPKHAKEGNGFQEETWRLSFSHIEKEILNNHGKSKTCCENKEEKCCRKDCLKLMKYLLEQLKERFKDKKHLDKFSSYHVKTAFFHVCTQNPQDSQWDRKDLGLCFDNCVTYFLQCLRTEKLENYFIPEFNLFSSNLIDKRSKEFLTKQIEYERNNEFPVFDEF

In the first test the target is cGAS (Homo sapiens, UniProt Q8N884). As to the kind of experiment: Human cGAS enzyme assay (hcGAS IC50, in vitro), cGAMP formation by RapidFire MS. Type of test: biochemical. On the set-up: HumancGAS (amino acid 1-522) with an N-terminal 6×-His-tag and SUMO-tag; 6xHis (N); SUMO (N); made in house; host or cells: E. coli BL21(DE3) pLysS. The conditions noted are these: Table 1; 45 bp dsDNA-activated enzyme. Here is the method:
6.1 Method: Human cGAS Enzyme Assay (hcGAS IC50 (In Vitro))
Human cGAS enzyme was incubated in the presence of a 45 base pair double stranded DNA to activate the enzyme and GTP and ATP as substrates. Compound activity was determined by measuring the effect of compounds on the formation of the product of the enzyme reaction, cGAMP, which is measured by a mass spectrometry method.
HumancGAS (amino acid 1-522) with an N-terminal 6×-His-tag and SUMO-tag was expressed in E. coli BL21(DE3) pLysS (Novagen) cells for 16 h at 18° C. Cells were lysed in buffer containing 25 mM Tris (pH 8), 300 mM NaCl, 10 mM imidazole, 10% glycerol, protease inhibitor cocktail (cOmplete™, EDTA-free, Roche) and DNase (5 μg/mL). […] Purified protein was concentrated to 1.7 mg/mL and stored at −80° C.
Compounds were delivered in 10 mM DMSO solution, serially diluted and transferred to the 384 well assay plate (Greiner #781201) using an Echo acoustic dispenser. Typically, 8 concentrations were used with the highest concentration at 10 μM in the final assay volume followed by ^˜1:5 dilution steps. DMSO concentration was set to 1% in the final assay volume. The 384 well assay plate contained 22 test compounds (column 1-22), and DMSO in column 23 and 24.
After the compound transfer, 15 μL of the enzyme-DNA-working solution (12 nM cGAS, 0.32 μM 45base pair DNA in assay buffer, 10 mM Tris pH 7.5/10 mM KCl/5 mM MgCl2/1 mM DTT) were added to each well from column 1-23 via a MultiDrop Combi dispenser. In column 24, 15 μl of assay buffer without enzyme/DNA were added as a low control.
The plates were then pre-incubated for 60 min at room temperature.
Following that, 10 μL of GTP (ThermoFisher #R0461)-ATP (Promega #V915B) mix in assay buffer were added to the assay plate (columns 1-24, 30 μM final concentration each) using a Multidrop Combi.
The plates were incubated again for 90 min at room temperature.
Following the incubation, the reaction was stopped by 80 μL of 0,1% formic acid in assay buffer containing 5 nM cyclic-di-GMP (Sigma #SML1228) used as internal standard for the mass spectrometry. The total volume/well was 105 μL.
The plates were centrifuged at 4000 rpm, 4° C., for 5 min.
The RapidFire autosampler was coupled to a binary pump (Agilent 1290) and a Triple Quad 6500 (ABSciex, Toronto, Canada). […] Aspiration time: 250 ms; Load time: 3000 ms; Elute time: 3000 ms; Wash volume: 500 μL.
The MS was operated in positive ion mode with HESI ion source, with a source temperature of 550 C, curtain gas=35, gas 1=65, and gas 2=80. Unit mass resolution in SRM mode. The following transitions and MS parameters (DP: declustering potential and CE: collision energy) for cGAMP and DicGMP were determined:
Internal standard: cyclic-di-GMP at 690.1/540, DP=130, CE=30.
The formation of cGAMP was monitored and evaluated as ratio to cyclic-di-GMP.
(§1) Data Evaluation and Calculation:
For data evaluation and calculation, the measurement of the low control was set as 0% control and the measurement of the high control was set as 100% control. The IC50 values were calculated using the standard 4 parameter logistic regression formula. Calculation: [y=(a−d)/(1+(x/c)^b)+d], a=low value, d=high value; x=conc M; c=1C50 M; b=slope
One may read the IC50 as the concentration that gives 50% inhibition. Take `Cc1cccc2c1nc1n2[C@H]2CCN(C[C@@H]2C)C(=O)CCCCCC(F)(F)c2nc(c3oc4ccccc4c3n2)N2C[C@H](C[C@H]2C(=O)O)O1` [Example 1.28]: the half-maximal inhibitory concentration (IC50) was determined as 11 nM.
The same measure, in the same setting: next, `C[C@H]1CN2CC[C@@H]1n1c(nc3ccc(Cl)cc31)O[C@H]1C[C@@H](C(=O)O)N(C1)c1nc(nc3c1oc1ccccc13)C(F)(F)CCCCCC2=O` [Example 1.13]: 6.1 nM; `C[C@@H]1CN2CC[C@H]1n1c(nc3ccccc31)O[C@H]1C[C@@H](C(=O)O)N(C1)c1nc(nc3c1oc1ccccc13)CCCCCOC2=O` [Example 10.01]: 54 nM; `C[C@H]1CN2CC[C@@H]1n1c(nc3cc(F)ccc31)O[C@H]1C[C@@H](C(=O)O)N(C1)c1nc(nc3c1oc1ccccc13)C(F)(F)CCCCC(F)(F)C2=O` [Example 1.18]: 3.9 nM.
Same read-out and setting: the figure for `C[C@H]1CN2CC[C@@H]1n1c(nc3ccccc31)O[C@H]1C[C@@H](C(=O)O)N(C1)c1nc(nc3c1oc1ccccc13)CCCCCOC2=O` [Example 10.02] is 34 nM.
Take `O=C(O)[C@@H]1C[C@H]2CN1c1nc(nc3c1oc1ccccc13)COCCCCCC(=O)N1CCC(CC1)n1c(nc3cccc(F)c31)O2` [Example 5.01]: inhibition was half-maximal at 5.5 nM (IC50).
Same read-out and setting: next, `C[C@H]1CN2CC[C@@H]1n1c(nc3ccccc31)O[C@H]1C[C@@H](C(=O)O)N(C1)c1nc(nc3c1oc1ccccc13)CCCC(C)(C)CCC2=O` [Example 1.23]: 41 nM; `Cc1cccc2c1nc1n2[C@@H]2CCN(C[C@H]2C)C(=O)CCCCCC(F)(F)c2nc(c3oc4ccccc4c3n2)N2C[C@H](C[C@H]2C(=O)O)O1` [Example 1.27]: 100 nM; `C[C@H]1CN2CC[C@@H]1n1c(nc3ccccc31)O[C@H]1C[C@@H](C(=O)O)N(C1)c1nc(nc3c1oc1cc(Cl)ccc13)CCOCCCC2=O` [Example 1.07]: 3.8 nM.
Still for that read-out and setting: the figure for `O=C(O)[C@@H]1C[C@H]2CN1c1nc(nc3c1oc1ccccc13)CCCOCC(=O)N1CCC(CC1)n1c(nc3ccccc31)O2` [Example 9.01] is 7.5 nM.

For the next test, the system named is IFN induction in cGAMP-stimulated THP1 cells. As to the kind of experiment: cGAMP stimulated counter cell assay in THP1-Dual cells (THP1(cGAMP) IC50). In kind it is cell-based, human. The conditions noted are these: Homo sapiens, THP-1; Table 1; counter assay, 10 μM cGAMP stimulation; read-out: THP(cGAMP) IC50.
Excerpt: 6.2 Method: Human cGAS Cell Assay and cGAMP Stimulated Counter Cell Assay (THP1(vir) IC50 and THP1(cGAMP) IC50)
For the counter assay, cells were stimulated by cGAMP (SigmaAldrich #SML1232) to activate the identical pathway independent and directly downstream of cGAS (measurement of THP1(cGAMP) IC50).
Pathway activity was monitored by measuring the Lucia luciferase activity induced by either DNA stimulated cGAS enzyme activity (measurement of THP1(vir) IC50) or by cGAMP directly (measurement of THP1(cGAMP) IC50, counter assay).
Compounds were delivered in 10 mM DMSO solution, serially diluted and transferred to the 384 well assay plate (Greiner #781201) using an Echo acoustic dispenser. Typically, 8 concentrations were used with the highest concentration at 10 μM in the final assay volume followed by ^˜1:5 dilution steps. DMSO concentration was set to 1% in the final assay volume. The 384 well assay plate contained […] (column 1-22), and DMSO in column 23 and 24.
Cells, cultivated according to manufacturer conditions, were harvested by centrifugation at 300 g/10 min and were then resuspended and diluted to 1.66E5 cells/ml in fresh cell culture medium (RPMI 1640 (Gibco #A10491-01), 10% FCS (Gibco #10500), 1× GlutaMax (Gibco #35050-061), 1× Pen/Strep solution (Gibco #15140-122), 100 μg/ml Normocin (InvivoGen #ant-nr), 100 μg/ml Zeocin (InvivoGen #ant-zn), 10 μg/ml Blasticidin S (Life Technologies #A11139-03)). The baculovirus solution was then added 1:200 (have varied according to virus batch) to the cells (measurement of THP1(vir) IC50).
30 μL of the cell/virus-mix were added to each well of the compound plate from column 1-23 via MultiDrop Combi dispenser (5000 cells/well). In column 24, 30 μl/5000 cells/well without virus were added as a low control.
The plates were then incubated for 18 h at 37° C. in a humidified incubator.
Following that, 15 μL of QuantiLuc detection reagent (InvivoGen #rep-qlcg5) were added to each well using a MultiDrop Combi. Measurement was done immediately after the addition using an EnVision reader (US-luminescence read-mode).
as §1
For data evaluation and calculation, the measurement of the low control was set as 0% control and the measurement of the high control was set as 100% control. The IC50 values were calculated using the standard 4 parameter logistic regression formula. Calculation: [y=(a−d)/(1+(x/c)^b)+d], a=low value, d=high value; x=conc M; c=IC50 M; b=slope
In the case of `Cc1cccc2c1nc1n2[C@H]2CCN(C[C@@H]2C)C(=O)CCCCCC(F)(F)c2nc(c3oc4ccccc4c3n2)N2C[C@H](C[C@H]2C(=O)O)O1` [Example 1.28], the IC50 stood at 4000 nM.
Still for that read-out and setting: the figure for `C[C@H]1CN2CC[C@@H]1n1c(nc3ccc(Cl)cc31)O[C@H]1C[C@@H](C(=O)O)N(C1)c1nc(nc3c1oc1ccccc13)C(F)(F)CCCCCC2=O` [Example 1.13] is 11000 nM.
Same read-out and setting: next, `C[C@@H]1CN2CC[C@H]1n1c(nc3ccccc31)O[C@H]1C[C@@H](C(=O)O)N(C1)c1nc(nc3c1oc1ccccc13)CCCCCOC2=O` [Example 10.01]: 8200 nM.
The same measure, in the same setting: next, `C[C@H]1CN2CC[C@@H]1n1c(nc3cc(F)ccc31)O[C@H]1C[C@@H](C(=O)O)N(C1)c1nc(nc3c1oc1ccccc13)C(F)(F)CCCCC(F)(F)C2=O` [Example 1.18]: 10000 nM; `C[C@H]1CN2CC[C@@H]1n1c(nc3ccccc31)O[C@H]1C[C@@H](C(=O)O)N(C1)c1nc(nc3c1oc1ccccc13)CCCCCOC2=O` [Example 10.02]: more than 10000 nM.
With `O=C(O)[C@@H]1C[C@H]2CN1c1nc(nc3c1oc1ccccc13)COCCCCCC(=O)N1CCC(CC1)n1c(nc3cccc(F)c31)O2` [Example 5.01], the half-maximal inhibitory concentration (IC50) was more than 10000 nM.
On the same count and under the same terms, next, `C[C@H]1CN2CC[C@@H]1n1c(nc3ccccc31)O[C@H]1C[C@@H](C(=O)O)N(C1)c1nc(nc3c1oc1ccccc13)CCCC(C)(C)CCC2=O` [Example 1.23]: 9500 nM; `Cc1cccc2c1nc1n2[C@@H]2CCN(C[C@H]2C)C(=O)CCCCCC(F)(F)c2nc(c3oc4ccccc4c3n2)N2C[C@H](C[C@H]2C(=O)O)O1` [Example 1.27]: 6000 nM.
Take `C[C@H]1CN2CC[C@@H]1n1c(nc3ccccc31)O[C@H]1C[C@@H](C(=O)O)N(C1)c1nc(nc3c1oc1cc(Cl)ccc13)CCOCCCC2=O` [Example 1.07]: the 50% inhibitory concentration (IC50) is more than 10000 nM.

Staying with this test, now noted: Table 1; selectivity for cGAS-inhibition.
For the compound `Cc1cccc2c1nc1n2[C@H]2CCN(C[C@@H]2C)C(=O)CCCCCC(F)(F)c2nc(c3oc4ccccc4c3n2)N2C[C@H](C[C@H]2C(=O)O)O1` [Example 1.28], the “Ratio THP(cGAMP) IC50/THP(vir) IC50” value is reported as 267.
The same measure, in the same setting: the figure for `C[C@H]1CN2CC[C@@H]1n1c(nc3ccc(Cl)cc31)O[C@H]1C[C@@H](C(=O)O)N(C1)c1nc(nc3c1oc1ccccc13)C(F)(F)CCCCCC2=O` [Example 1.13] is 2251.
Still for that read-out and setting: the figure for `C[C@@H]1CN2CC[C@H]1n1c(nc3ccccc31)O[C@H]1C[C@@H](C(=O)O)N(C1)c1nc(nc3c1oc1ccccc13)CCCCCOC2=O` [Example 10.01] is 45.
In the case of `C[C@H]1CN2CC[C@@H]1n1c(nc3cc(F)ccc31)O[C@H]1C[C@@H](C(=O)O)N(C1)c1nc(nc3c1oc1ccccc13)C(F)(F)CCCCC(F)(F)C2=O` [Example 1.18], the “Ratio THP(cGAMP) IC50/THP(vir) IC50” value is 270.
The same measure, in the same setting: the figure for `C[C@H]1CN2CC[C@@H]1n1c(nc3ccccc31)O[C@H]1C[C@@H](C(=O)O)N(C1)c1nc(nc3c1oc1ccccc13)CCCCCOC2=O` [Example 10.02] is more than 156.
Still for that read-out and setting: the figure for `O=C(O)[C@@H]1C[C@H]2CN1c1nc(nc3c1oc1ccccc13)COCCCCCC(=O)N1CCC(CC1)n1c(nc3cccc(F)c31)O2` [Example 5.01] is more than 260; for `C[C@H]1CN2CC[C@@H]1n1c(nc3ccccc31)O[C@H]1C[C@@H](C(=O)O)N(C1)c1nc(nc3c1oc1ccccc13)CCCC(C)(C)CCC2=O` [Example 1.23] it is 51.
For the compound `Cc1cccc2c1nc1n2[C@@H]2CCN(C[C@H]2C)C(=O)CCCCCC(F)(F)c2nc(c3oc4ccccc4c3n2)N2C[C@H](C[C@H]2C(=O)O)O1` [Example 1.27], the “Ratio THP(cGAMP) IC50/THP(vir) IC50” value amounted to 33.
The same measure, in the same setting: the figure for `C[C@H]1CN2CC[C@@H]1n1c(nc3ccccc31)O[C@H]1C[C@@H](C(=O)O)N(C1)c1nc(nc3c1oc1cc(Cl)ccc13)CCOCCCC2=O` [Example 1.07] is more than 1541.
